Test [1] has as its system Mycobacterium tuberculosis. Nature of the test: Binding affinity to N-terminal polyhis-tagged Mycobacterium tuberculosis ICL1 C191S mutant expressed in Escherichia coli BL21 (DE3) assessed as compound-protein covalent adduct formation by measuring molecular mass at 1 mM after 12 hrs in presence of MgCl2 by LC-MS analysis.
Test [2] can be described thus: Binding affinity to N-terminal polyhis-tagged Mycobacterium tuberculosis ICL1 C191S mutant expressed in Escherichia coli BL21 (DE3) in presence of MgCl2 by NMR binding analysis.

SMILES strings stand for the structures. The source made the active and inactive calls. The calls are words filed in the database; no cut-off is given here.

As for `C=C(CC(=O)O)C(=O)O` [ITACONATE], the outcome in test [1] was Active. Also, the Kd in test [2] worked out at 155 µM.

Usually Kd stands for the free concentration of one partner at which half of the binding sites on the other are occupied at equilibrium, for simple one-to-one binding.
